Measurements taken from patent US5489598A, “Cytoprotection utilizing aryltriazol-3-thiones” (Warner-Lambert Company, priority 1994, dated 1996).

Tests used:
[1] = target: T1, Mac-1 (CD11b/CD18) (Homo sapiens, UniProt P05107+P11215); experiment: Human Neutrophil Mac-1 Adhesion Assay (PMN KLH); assay type: cell-based; conditions: human neutrophils, FMLP-stimulated, KLH coated plates
T1 construct: methodology to isolate neutrophils from ethylenediaminetetraacetic acid (EDTA)-treated venous blood obtained from healthy human volunteers; endogenous in cells; host or cells: neutrophils (PMN) freshly isolated from venous blood of healthy human volunteers
Method: Protocol for Human Neutrophil Mac-1 Adhesion Assay
We evaluated several 5-aryltriazol-3-thiones utilizing methodology similar to that of Ferrante and Thong as described in J. Immunol. […] Namely, we utilized Ferrante and Thong's methodology to isolate neutrophils from ethylenediaminetetraacetic acid (EDTA)-treated venous blood obtained from healthy human volunteers. Keyhole limpet hemocyanin (KLH) coated microtiter plates were prepared as follows:
All pipetting was automated using the Cetus Pro/Pette (Perkin-Elmer; division of Applied Biosystems, Foster, Calif.). KLH, Megathura crenulata; Calbiochem-Novabiochem, La Jolla, Calif., was prepared at a concentration of 0.5 mg/mL in Dulbecco's PBS phosphate buffered saline (PBS) with CA++, pH 7.2 (DPBS).
Microtiter plates are prewashed with 50% EtOH for 1 hour at 37° C., then drained and blotted to dryness. Then 0.3 mL KLH solution was pipetted into each well of the 96 well microtiter plate, covered and incubated overnight at 37° C. Plates are then inverted to drain, blotted to dryness, washed with 0.3 mL cold D-PBS, drained, blotted to dryness, then stored at 4° C. until use.
Procedure for PMN KLH (Mac-1 Adhesion Assay)
On the Pro/Pette system, a treatment plate was placed in plate position 1 (P-1), buffer Micro.trof was placed in plate position 2 (P-2), and a single row of tips in a spare magazine are placed in the tip position on the carriage. Two hundred ten μL aliquots D-PBS are pipetted into all wells (105 μL using Cetus File #18, Micro.trof 3, no mixes, tip row H, no tip change, run twice). Drug plate was placed in plate position 2 (P-2). Donor drug plates were prepared to contain buffer or drug in appropriate wells. Thirty μL drug or D-PBS buffer are pipetted into appropriate wells in the treatment plate in position 1 (P-1) (Cetus File #17, one mix before and after, changing tips) from donor plate. Thirty μL of neutrophils (PMNs) (30 μL of 10^7 cells/mL) were next pipetted from either a Micro.trof 1, position 2 (P-2), or a row of 0.5 mL capacity microcentrifuge tubes (Sarstedt RIA vials) to plate 1 using Cetus File #18, changing tips, one mix (50 μL) before and after. Cells and drug were then incubated for 10 minutes at 37° C. Agonist (e.g., FMLP) or D-PBS buffer (30 μL) were next pipetted to appropriate wells using Cetus File #18 (Micro.trof) or Cetus File #42 (for plate to plate), changing tips and one mix before and after. Cell/drug/agonist mixture was then incubated for 60 minutes at 37° C. After the incubation period, the treatment plate is gently inverted to drain, blotted lightly to dryness on a paper towel. The treatment plate is then washed with 300 μL D-PBS buffer using Cetus File #18, using pump at slow speed, again inverted to drain, and again blotted to dryness. Adherent cells are stained by the addition of 150 μL D-PBS buffer to all wells, using Cetus File #18, Micro.trof 3 no tip change. […] The treatment plate is then incubated overnight at 37° C.
After overnight incubation, the treatment plate is gently inverted to drain, blotted to dryness on paper towel, then gently washed with 300 μL D-PBS buffer using Cetus File #18, using pump at slow sped. The treatment plate is then gently inverted to drain, and blotted to dryness. The washing of the treatment plate is repeated until all excess dye is removed.
The treatment plate is then covered and incubated for 60 minutes at 37° C. After the incubation, 150 μL 50% EtOH is added to each well of the treatment plate using Cetus File #18, Micro.trof 3, mixing three times, changing tips. […]
a. mean unstimulated cell control OD is determined and subtracted from all other values b. mean net stimulated, e.g., FMLP, control values are determined c. mean drug values are determined and percent drug inhibition vs. stimulus control are calculated as follows: [formula] d. IC50 determinations, plotting logdose vs. percent inhibition, are determined by linear regression analysis using the least squares method.

[2] = system: gastric damage (acidified aspirin); experiment: Cytoprotection study: gastric damage by oral acidified aspirin; assay type: in vivo, Sprague-Dawley rats; conditions: Rattus norvegicus; 1 mg/kg PO, 15 min before oral acidified aspirin 288 mg/kg; female rats
Method: Protocol for Cytoprotection Studies
For all studies, random-bred, barrier-raised, SPF, female Sprague-Dawley rats (Charles River Laboratories, Portage, Mich.) weighing 180-300 g were used. Animals were acclimated for at least 1 week prior to the studies and housed in wire bottom cages supplied with macrofiltered fresh tap water and Purina Rat Chow #5012 (Purina Mills Inc., Richmond, Ind.) ad libitum. The animal rooms were kept at 22° C.±1° C. and 50% humidity.
All animals were food fasted for 24 hours and water deprived for 2 or more hours prior to treatment administration. For oral dosing, Aspirin (acetylsalicylic acid, Sigma, St. Louis, Mo.) was dissolved in an aqueous solution of 150 mM HCl (Takeucvhi K., Digestive Disease and Science, 35:178-185 (1990)). Misoprostol was used as a standard. The test compound was dissolved in double glass distilled water, normal saline USP (NS) or the misoprostol phosphate buffer vehicle. All oral doses of misoprostol and test compounds were administered in a volume of 1 mL/animal. All oral dosing was done by gavage using a 3 mL syringe attached to a […], 17 gauge gavage needle.
The test compounds were administered in 1 mL 15 minutes prior to treatment with an oral dose of acidified aspirin (288 mg/kg in 150 mM HCl) given in 1 mL. Stomachs were removed to assess gastric damage 30 minutes after exposure to the damaging agent. The stomach was isolated through a midline incision in the abdomen followed by clamping of the esophagus and duodenum. Seven milliliters of 10% formalin (Fisher Scientific, Fair Lawn, N.J.) was injected into the stomach which was then excised and submerged in formalin for at least 10 minutes. The stomach was then opened along the greater curvature and pinned flat and submerged in formalin overnight. After the forestomach and exterior blood vessels were trimmed away, the tissues were clarified with glycerol (E. M. Science, Gibbstown, N.J.) and flattened between Plexiglass plates. Gastric damage was measured with a Cambridge Instruments LTD., (Cambridge, UK) Quantimet 970 Image Analysis System. Hemorrhagic damage appeared as darkened areas on a background of lighter undamaged tissue. This darker area was detected and surface area measured by the image analyzer. In addition, the complete stomachs were also completely submerged in 0.1N solution of iodine (J. T. Baker Chemical Co., Phillipsburg, N.J.), and the total stomach surface area was determined. The system was calibrated prior to each use with a standard sample. The percent damage and percent protection was computed by the following equation: [formula]

T1 sequence (P05107 23-769, other chains not shown): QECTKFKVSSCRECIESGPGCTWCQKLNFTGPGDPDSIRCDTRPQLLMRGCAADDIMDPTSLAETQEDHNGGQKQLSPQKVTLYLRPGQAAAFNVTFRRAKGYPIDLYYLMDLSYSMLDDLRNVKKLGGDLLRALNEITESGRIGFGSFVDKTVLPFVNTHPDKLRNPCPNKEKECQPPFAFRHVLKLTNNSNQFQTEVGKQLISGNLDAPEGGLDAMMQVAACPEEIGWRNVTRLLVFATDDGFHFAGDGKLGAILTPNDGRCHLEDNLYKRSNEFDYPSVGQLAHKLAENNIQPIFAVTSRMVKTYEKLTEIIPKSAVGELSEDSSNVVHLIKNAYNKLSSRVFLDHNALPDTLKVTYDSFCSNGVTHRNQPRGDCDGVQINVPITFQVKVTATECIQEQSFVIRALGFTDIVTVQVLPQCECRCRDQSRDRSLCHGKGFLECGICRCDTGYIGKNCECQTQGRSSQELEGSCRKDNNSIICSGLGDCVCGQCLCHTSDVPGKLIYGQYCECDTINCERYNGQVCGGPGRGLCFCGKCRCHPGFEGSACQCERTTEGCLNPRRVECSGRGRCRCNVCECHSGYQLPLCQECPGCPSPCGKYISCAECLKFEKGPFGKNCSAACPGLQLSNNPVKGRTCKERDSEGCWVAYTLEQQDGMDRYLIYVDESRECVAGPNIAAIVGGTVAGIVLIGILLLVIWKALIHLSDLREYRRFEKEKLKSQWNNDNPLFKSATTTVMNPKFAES

| SMILES | inhibition at 33 µM [1] | inhibition in vivo at 1 mg/kg [2] | IC50 [1] |
| --- | --- | --- | --- |
| COc1cccc(-c2n[nH]c(=S)n2-c2ccccc2)c1 [Example 28, 5-(3-methoxyphenyl)-2,4-dihydro-4-phenyl-3H-[1,2,4]-triazol-3-thione] | 60% |  |  |
| CCn1c(-c2ccccc2N)n[nH]c1=S [Example 36, 5-(2-aminophenyl)-4-ethyl-2,4-dihydro-[1,2,4]triazol-3-thione] |  | 53.7% | 400 nM |
| Nc1ccc(-c2n[nH]c(=S)n2-c2ccccc2)cc1 [Example 31, 5-(4-aminophenyl)-2,4-dihydro-4-phenyl-3H-[1,2,4]-triazol-3-thione] | 15% |  |  |
| COc1ccc(-c2n[nH]c(=S)n2C)cc1OC [Example 32, 5-(3,4-dimethoxyphenyl)-2,4-dihydro-4-methyl-3H-[1,2,4]-triazol-3-thione] |  | 21.6% | 1500 nM |
| Sc1nnc(-c2ccccc2)n1Cc1ccccc1 [Example 25, 2,4-dihydro-5-phenyl-4-(phenylmethyl)-3H-[1,2,4]-triazol-3-thione] |  |  | 8100 nM |
| Sc1nnc(-c2ccccc2)n1-c1ccccc1 [Example 23, 2,4-dihydro-4,5-diphenyl-3H-[1,2,4]-triazol-3-thione] |  | 21.4% | 1100 nM |
| Nc1ccccc1-c1n[nH]c(=S)n1N [Example 39, 4-Amino-5-(2-aminophenyl)-2,4-dihydro-3H-[1,2,4]triazol-3-thione] | 57% |  |  |
| CCn1c(-c2ccc(OC)cc2)n[nH]c1=S [Example 11, 5-(4-methoxyphenyl)-4-ethyl-2,4-dihydro-[1,2,4]triazol-3-thione] |  | 32.2% | 1600 nM |
| CCn1c(-c2ccc(N)cc2)n[nH]c1=S [Example 2, 5-(4-aminophenyl)-4-ethyl-2,4-dihydro-[1,2,4]triazol-3-thione] | 36.9% |  |  |
| Oc1ccc(-c2n[nH]c(=S)n2-c2ccccc2)cc1 [Example 27, 5-(4-hydroxyphenyl)-2,4-dihydro-4-phenyl-3H-[1,2,4]-triazol-3-thione] | 6% |  |  |
| CNc1ccccc1-c1n[nH]c(=S)n1-c1ccccc1 [Example 37, 5-(2-methylaminophenyl)-4-phenyl-2,4-dihydro-[1,2,4]triazol-3-thione] | 7% |  |  |
| Nc1ccccc1-c1n[nH]c(=S)n1-c1ccccc1 [Example 35, 5-(aminophenyl)-2,4-dihydro-4-phenyl-3H-[1,2,4]-triazol-3-thione] | 24% |  |  |
| COc1ccc(-c2n[nH]c(=S)n2-c2ccccc2)cc1 [Example 33, 5-(4-methoxyphenyl)-2,4-dihydro-4-phenyl-3H-[1,2,4]-triazol-3-thione] |  |  | 4100 nM |
| CCn1c(-c2cc(Cl)ccc2N)n[nH]c1=S [Example 6, 5-(2-amino-5-chlorophenyl)-4-ethyl-2,4-dihydro-[1,2,4]triazol-3-thione] |  | 55.1% | 800 nM |
| Cn1c(-c2ccccc2N)n[nH]c1=S [Example 38, 5-(2-Aminophenyl)-2,4-dihydro-4-methyl-4H-[1,2,4]triazol-3-thione] | -0.1% | 51.2% |  |
| CCn1c(S)nnc1-c1ccccc1O [Example 5, 5-(2-hydroxyphenyl)-4-ethyl-2,4-dihydro-[1,2,4]triazol-3-thione] |  |  | 4300 nM |
| COc1ccc(-c2n[nH]c(=S)n2-c2ccccc2)cc1OC [Example 26, 5-(3,4-dimethoxyphenyl)-2,4-dihydro-4-phenyl-3H-1,2,4-triazol-3-thione] |  |  | 800 nM |
| CCn1c(-c2ccc(O)cc2)n[nH]c1=S [Example 4, 5-(4-hydroxyphenyl)-4-ethyl-2,4-dihydro-[1,2,4]triazol-3-thione] |  |  | 7800 nM |
| Cc1ccccc1-c1n[nH]c(=S)n1-c1ccccc1 [Example 22, 5-(2-methylphenyl)-2,4-dihydro-4-phenyl-3H-[1,2,4]-triazol-3-thione] |  |  | 200 nM |
| Oc1ccc(-c2n[nH]c(=S)n2Cc2ccccc2)cc1 [Example 29, 5-(4-hydroxyphenyl)-2,4-dihydro-4-phenylmethyl-3H-[1,2,4]-triazol-3-thione] | 42% |  |  |
| CCn1c(-c2ccc(Cl)cc2Cl)n[nH]c1=S [Example 12, 5-(2,4-chlorophenyl)-4-ethyl-2,4-dihydro-[1,2,4]triazol-3-thione] |  | 59.4% | 2100 nM |
| CCn1c(-c2ccc(OC)c(OC)c2)n[nH]c1=S [Example 16, 5-(3,4-dimethoxyphenyl)-4-ethyl-2,4-dihydro-[1,2,4]triazol-3-thione] |  | 62.2% | 3100 nM |
| S=c1nc(-c2ccccc2)[nH][nH]1 [Example 34, 1,2-dihydro-5-phenyl-3H-[1,2,4]-triazol-3-thione] | 58% |  |  |
| CCn1c(-c2cc(OC)c(OC)cc2N)n[nH]c1=S [Example 7, 5-(2-amino-4,5-dimethoxyphenyl)-4-ethyl-2,4-dihydro-[1,2,4]triazol-3-thione] |  |  | 7100 nM |
| COc1ccccc1-c1n[nH]c(=S)n1-c1ccccc1 [Example 24, 5-(2-methoxyphenyl)-2,4-dihydro-4-phenyl-3H-[1,2,4]-triazol-3-thione] |  |  | 2500 nM |
